Values belong to the molecule of their own block, whether it stands above or below them.
Columns and labels:
PIK3CA [1] = molecular target: PIK3CA (UniProt P42336)
EGFR [2] = molecular target: EGFR (UniProt P00533); conditions: concentration not given here
EGFR (human) [3] = molecular target: EGFR (human) (UniProt P00533); conditions: concentration not given here
CDK2 = CDK2 (UniProt P24941); assay: Enzyme Assay
EGFR [4] = molecular target: EGFR (UniProt P00533)
PIK3CG (human) = PIK3CG (human) (UniProt P48736); assay: Inhibition of PIK3CG Kinase Activity by SPA Assay
EGFR [5] = molecular target: EGFR (UniProt P00533); remark: listed apart in the source
EGFR [6] = molecular target: EGFR (UniProt P00533); remark: listed apart in the source
EGFR (human) [7] = molecular target: EGFR (human) (UniProt P00533); conditions: a431
EGFR (human) [8] = molecular target: EGFR (human) (UniProt P00533)
EGFR (human) [9] = molecular target: EGFR (human) (UniProt P00533); conditions: kb
EGFR [10] = molecular target: EGFR (UniProt P00533); remark: listed apart in the source
EGFR (human) [11] = molecular target: EGFR (human) (UniProt P00533); conditions: a431; remark: listed apart in the source
MAPK14 (Balb/c mice) = assay: Animal Model; conditions: dose or concentration not given here
MAPK14 = MAPK14 (UniProt Q16539); assay: Enzyme Assay
EGFR (human) [12] = molecular target: EGFR (human) (UniProt P00533); conditions: a431; remark: listed apart in the source
PIK3CA [13] = molecular target: PIK3CA (UniProt P42336); assay: Inhibition of PIK3CA Kinase Activity
EGFR (human) [14] = molecular target: EGFR (human) (UniProt P00533); remark: listed apart in the source
EGFR (human) [15] = molecular target: EGFR (human) (UniProt P00533); conditions: kb; remark: listed apart in the source
CDK2 (human) [16] = molecular target: CDK2 (human) (UniProt P24941)
EGFR (human) [17] = molecular target: EGFR (human) (UniProt P00533); remark: listed apart in the source
EGFR (human) [18] = molecular target: EGFR (human) (UniProt P00533); conditions: nih3t3
ROCK2 (human) = ROCK2 (human) (UniProt O75116); assay: Inhibition of ROCK2 Kinase Activity; conditions: concentration not given here
EGFR (human) [19] = molecular target: EGFR (human) (UniProt P00533); conditions: concentration not given here; remark: listed apart in the source
EGFR (human) [20] = molecular target: EGFR (human) (UniProt P00533); conditions: kb; remark: listed apart in the source
EGFR [21] = molecular target: EGFR (UniProt P00533); remark: listed apart in the source
CDK2 (human) [22] = molecular target: CDK2 (human) (UniProt P24941); remark: listed apart in the source
EGFR [23] = molecular target: EGFR (UniProt P00533); remark: listed apart in the source
CDK2 (human) [24] = molecular target: CDK2 (human) (UniProt P24941); assay: Enzyme Assay
CDK2 (human) [25] = molecular target: CDK2 (human) (UniProt P24941); assay: Enzyme Assay; remark: listed apart in the source
EGFR (human) [26] = molecular target: EGFR (human) (UniProt P00533); remark: listed apart in the source
EGFR (human) [27] = molecular target: EGFR (human) (UniProt P00533); conditions: kb; remark: listed apart in the source
EGFR (human) [28] = molecular target: EGFR (human) (UniProt P00533); remark: listed apart in the source
MAPK14 (human) = MAPK14 (human) (UniProt Q16539); assay: Inhibition of MAPK14 Kinase Activity
EGFR [29] = molecular target: EGFR (UniProt P00533); remark: listed apart in the source

EGFR (human), sequence (P00533 whole entry, looked up): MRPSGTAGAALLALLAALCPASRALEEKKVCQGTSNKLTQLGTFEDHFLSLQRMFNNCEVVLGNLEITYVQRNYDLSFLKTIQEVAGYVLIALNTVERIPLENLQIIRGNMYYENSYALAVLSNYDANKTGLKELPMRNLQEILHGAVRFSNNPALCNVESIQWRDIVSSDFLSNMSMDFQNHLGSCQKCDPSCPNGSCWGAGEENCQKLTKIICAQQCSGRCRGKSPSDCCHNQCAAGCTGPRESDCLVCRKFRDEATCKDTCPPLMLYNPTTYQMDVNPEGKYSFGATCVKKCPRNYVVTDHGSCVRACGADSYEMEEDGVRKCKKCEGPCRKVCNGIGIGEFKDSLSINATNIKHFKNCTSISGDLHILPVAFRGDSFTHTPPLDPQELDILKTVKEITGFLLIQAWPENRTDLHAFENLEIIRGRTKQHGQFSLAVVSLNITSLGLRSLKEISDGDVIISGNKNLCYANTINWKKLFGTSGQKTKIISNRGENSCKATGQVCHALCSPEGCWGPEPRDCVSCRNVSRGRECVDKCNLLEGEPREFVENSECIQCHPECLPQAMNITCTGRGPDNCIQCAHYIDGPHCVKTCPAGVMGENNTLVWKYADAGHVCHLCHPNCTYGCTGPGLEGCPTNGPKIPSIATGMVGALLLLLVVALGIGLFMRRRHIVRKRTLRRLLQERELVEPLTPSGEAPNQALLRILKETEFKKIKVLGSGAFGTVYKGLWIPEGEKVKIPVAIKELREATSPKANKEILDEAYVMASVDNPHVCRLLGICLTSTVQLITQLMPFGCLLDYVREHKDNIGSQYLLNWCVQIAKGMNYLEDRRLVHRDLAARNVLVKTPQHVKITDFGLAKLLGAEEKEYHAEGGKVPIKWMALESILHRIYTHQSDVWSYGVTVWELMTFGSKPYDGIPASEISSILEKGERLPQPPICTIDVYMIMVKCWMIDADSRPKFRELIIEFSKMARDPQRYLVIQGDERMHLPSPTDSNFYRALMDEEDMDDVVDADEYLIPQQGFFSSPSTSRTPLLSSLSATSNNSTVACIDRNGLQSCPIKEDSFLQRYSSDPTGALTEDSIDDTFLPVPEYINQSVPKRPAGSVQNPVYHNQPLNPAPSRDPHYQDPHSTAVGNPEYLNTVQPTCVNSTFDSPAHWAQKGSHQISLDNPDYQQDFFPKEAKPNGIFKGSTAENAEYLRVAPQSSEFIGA
EGFR, sequence (P00533 whole entry, looked up): as above
PIK3CA, sequence (P42336 whole entry, looked up): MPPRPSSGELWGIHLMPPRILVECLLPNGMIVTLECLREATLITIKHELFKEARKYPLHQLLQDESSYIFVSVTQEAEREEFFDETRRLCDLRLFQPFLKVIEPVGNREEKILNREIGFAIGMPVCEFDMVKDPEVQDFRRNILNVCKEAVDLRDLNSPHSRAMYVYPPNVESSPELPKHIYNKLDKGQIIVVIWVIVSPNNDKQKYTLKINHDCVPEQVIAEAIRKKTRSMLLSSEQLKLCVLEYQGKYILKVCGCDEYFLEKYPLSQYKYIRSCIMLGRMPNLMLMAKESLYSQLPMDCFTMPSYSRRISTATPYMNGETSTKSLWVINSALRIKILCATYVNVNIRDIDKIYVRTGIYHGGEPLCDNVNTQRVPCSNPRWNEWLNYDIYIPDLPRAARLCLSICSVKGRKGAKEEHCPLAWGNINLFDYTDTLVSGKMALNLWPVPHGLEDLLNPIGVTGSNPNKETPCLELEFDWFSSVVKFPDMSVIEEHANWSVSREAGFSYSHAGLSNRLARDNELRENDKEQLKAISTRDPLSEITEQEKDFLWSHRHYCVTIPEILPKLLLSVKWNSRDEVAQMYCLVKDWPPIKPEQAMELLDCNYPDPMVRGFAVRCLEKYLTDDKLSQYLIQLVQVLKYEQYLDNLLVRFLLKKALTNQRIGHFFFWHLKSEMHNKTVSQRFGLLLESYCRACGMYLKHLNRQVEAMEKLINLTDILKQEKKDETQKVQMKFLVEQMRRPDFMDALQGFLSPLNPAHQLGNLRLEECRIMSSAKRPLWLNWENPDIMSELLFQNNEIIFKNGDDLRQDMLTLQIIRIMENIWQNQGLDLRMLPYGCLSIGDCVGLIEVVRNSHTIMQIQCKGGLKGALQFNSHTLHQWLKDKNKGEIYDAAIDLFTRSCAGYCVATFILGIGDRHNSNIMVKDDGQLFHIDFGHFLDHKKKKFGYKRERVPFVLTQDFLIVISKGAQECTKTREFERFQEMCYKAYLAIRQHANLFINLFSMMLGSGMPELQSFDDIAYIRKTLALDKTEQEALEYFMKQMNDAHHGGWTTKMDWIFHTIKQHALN
MAPK14, sequence (Q16539 whole entry, looked up): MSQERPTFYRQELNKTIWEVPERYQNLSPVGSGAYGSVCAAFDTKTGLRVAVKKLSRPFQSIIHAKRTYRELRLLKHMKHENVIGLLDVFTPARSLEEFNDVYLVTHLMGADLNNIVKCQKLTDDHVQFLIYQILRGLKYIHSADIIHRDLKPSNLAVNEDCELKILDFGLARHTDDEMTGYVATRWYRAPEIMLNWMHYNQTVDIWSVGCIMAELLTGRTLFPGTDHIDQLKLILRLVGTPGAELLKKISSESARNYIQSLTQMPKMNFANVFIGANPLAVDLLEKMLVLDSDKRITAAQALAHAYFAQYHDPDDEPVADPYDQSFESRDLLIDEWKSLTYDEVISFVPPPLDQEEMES
MAPK14 (human), sequence (Q16539 whole entry, looked up): as above
PIK3CG (human), sequence (P48736 whole entry, looked up): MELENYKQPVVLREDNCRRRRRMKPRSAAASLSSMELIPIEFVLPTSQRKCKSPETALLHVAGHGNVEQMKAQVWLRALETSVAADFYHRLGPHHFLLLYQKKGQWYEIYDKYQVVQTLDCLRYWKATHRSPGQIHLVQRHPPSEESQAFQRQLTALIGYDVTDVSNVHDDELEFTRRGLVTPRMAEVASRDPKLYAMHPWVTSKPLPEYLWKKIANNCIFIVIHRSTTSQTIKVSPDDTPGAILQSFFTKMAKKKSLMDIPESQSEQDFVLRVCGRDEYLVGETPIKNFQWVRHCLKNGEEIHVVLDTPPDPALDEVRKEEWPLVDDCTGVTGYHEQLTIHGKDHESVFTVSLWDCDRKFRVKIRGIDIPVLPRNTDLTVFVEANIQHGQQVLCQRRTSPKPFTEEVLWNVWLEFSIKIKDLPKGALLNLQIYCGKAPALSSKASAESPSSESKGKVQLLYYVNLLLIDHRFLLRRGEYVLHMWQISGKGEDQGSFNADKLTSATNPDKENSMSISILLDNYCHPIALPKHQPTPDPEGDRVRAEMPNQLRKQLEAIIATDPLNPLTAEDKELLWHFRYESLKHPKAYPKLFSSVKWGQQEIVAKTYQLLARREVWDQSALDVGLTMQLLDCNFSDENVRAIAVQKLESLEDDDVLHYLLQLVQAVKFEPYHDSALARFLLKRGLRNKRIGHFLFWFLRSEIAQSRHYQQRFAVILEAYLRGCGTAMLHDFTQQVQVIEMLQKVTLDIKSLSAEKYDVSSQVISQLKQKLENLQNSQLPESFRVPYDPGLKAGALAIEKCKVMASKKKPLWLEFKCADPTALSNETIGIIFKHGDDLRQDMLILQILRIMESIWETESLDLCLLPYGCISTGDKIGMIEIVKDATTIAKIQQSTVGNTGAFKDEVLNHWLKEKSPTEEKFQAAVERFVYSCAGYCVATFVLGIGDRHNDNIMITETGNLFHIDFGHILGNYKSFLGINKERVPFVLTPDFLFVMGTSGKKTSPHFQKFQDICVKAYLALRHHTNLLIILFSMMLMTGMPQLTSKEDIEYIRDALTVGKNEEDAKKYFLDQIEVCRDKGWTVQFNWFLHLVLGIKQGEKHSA

IC50 (PIK3CA [1]): 5 µM
Structure (SMILES): O=c1cc(N2CCOCC2)oc2c(-c3cccc4c3sc3ccccc34)cccc12

inhibition (EGFR [2]): 0%
Structure (SMILES): CN1CCN(Cc2ccc(Nc3nc4ncc(C#N)c(Nc5ccc(Oc6ccccc6)cc5)c4s3)cc2)CC1

inhibition (EGFR (human) [3]): 11%
Structure (SMILES): N#Cc1cnc2sc(C(=O)Nc3ccc(NCCCN4CCOCC4)cc3)c3c2c1N(c1c(Cl)ccc2c1OCO2)C(=O)N3

IC50 (CDK2): > 10 µM
IC50 (EGFR [4]): 8 µM
Structure (SMILES): COc1cc(OC)c(/C=C/S(=O)(=O)Cc2ccc(OC)c(NC(C)C(=O)O)c2)c(OC)c1 (stereo not given)

IC50 (PIK3CG (human)): < 1000 nM
Structure (SMILES): COc1ccccc1Cn1cnc2ccc(/C=C3\SC(=O)NC3=O)cc21

IC50 (EGFR [5]): 250 nM
Structure (SMILES): COC(=O)c1ccc(NCc2cc(O)ccc2O)cc1

IC50 (EGFR [6]): 320 nM
Structure (SMILES): Fc1cccc(COc2ccc(Nc3ncncc3I)cc2Cl)c1

IC50 (EGFR (human) [7]): 67 nM
Structure (SMILES): CCOc1cc2ncc(C#N)c(Nc3ccc(OCc4ccccn4)c(Cl)c3)c2cc1NC(=O)/C=C/CNC

Ki (EGFR (human) [8]): 44 nM
Structure (SMILES): COc1cc2ncc(C#N)c(Nc3cccc(C)c3)c2cc1OC

IC50 (EGFR (human) [9]): 2500 nM
Structure (SMILES): CN1CCC(Oc2cccc3ncnc(Nc4ccc(OCc5cccc(F)c5)c(Cl)c4)c23)CC1

IC50 (EGFR [10]): > 10 µM
Structure (SMILES): c1ccc(-c2cnc(Nc3ccc(OCCN4CCCC4)cc3)s2)cc1

IC50 (EGFR (human) [11]): 27 µM
Structure (SMILES): O=C1NC(=O)N(CCc2ccccc2)/C1=C/c1ccc(O)cc1

IC50 (MAPK14): 370 nM
Structure (SMILES): Cc1cc(-c2[nH]c(-c3ccc([S+](C)[O-])cc3)nc2-c2ccc(F)cc2)ccn1 (stereo not given)
difference (MAPK14 (Balb/c mice)): -64%

IC50 (EGFR (human) [12]): 12.6 µM
Structure (SMILES): C=CC(=O)Cc1ccc2ncnc(Nc3cccc(Br)c3)c2c1

IC50 (PIK3CA [13]): > 50 µM
Structure (SMILES): COc1ccc(-c2cc(=O)cc(N3CCOCC3)o2)cc1

IC50 (EGFR (human) [14]): 9 nM
IC50 (EGFR (human) [15]): 91 nM
Structure (SMILES): COc1cc2ncnc(Nc3cccc(Cl)c3F)c2cc1CN(C)C1(C(N)=O)CCN(S(C)(=O)=O)CC1

IC50 (CDK2 (human) [16]): 61 µM
Structure (SMILES): NC(=O)c1sc(-c2ccsc2)cc1N

IC50 (EGFR (human) [17]): 4 nM
Structure (SMILES): CCN(CC)Cc1ccc(-c2cc3c(N[C@H](C)c4ccccc4)ncnc3[nH]2)cc1

IC50 (EGFR (human) [18]): > 10 µM
Structure (SMILES): Cc1cc(Nc2ncnc3ccc(N4CCOCC4)cc23)ccc1OC1CCN(C(=O)CC(C)(C)C)CC1

inhibition (ROCK2 (human)): 3%
inhibition (EGFR (human) [19]): 3%
Structure (SMILES): CCCOC(=O)c1c[nH]c2c(=O)[nH]c3ccc(S(=O)(=O)C4CC[C@H](N)C4)cc3c12 (stereo not given in full)

IC50 (EGFR (human) [20]): 87 nM
Structure (SMILES): COc1cc(OC2CCN(C)CC2)c2c(Nc3ccc(F)c(Cl)c3)ncnc2c1

IC50 (EGFR [21]): > 10 µM
Structure (SMILES): CNc1ncc(-c2ccc(C(=O)N[C@H](CN)Cc3ccc(Cl)cc3Cl)s2)cn1

IC50 (CDK2 (human) [22]): 8 µM
Structure (SMILES): NC(=O)c1c(NC(=O)CN2C(=O)CCC2=O)sc2c1CCC2

IC50 (EGFR [23]): 8.58 µM
Structure (SMILES): COCCN(C)CCOc1ccc2[nH]c(-c3cc4ccccc4[nH]c3=O)cc2c1

IC50 (CDK2 (human) [24]): > 5 µM
IC50 (CDK2 (human) [25]): > 5 µM
Structure (SMILES): CCC(C)Cn1c(=O)cc(C)c2cnc(Nc3ccc(N4CCNCC4)cc3)nc21 (stereo not given)

IC50 (EGFR (human) [26]): 2 nM
IC50 (EGFR (human) [27]): 10 nM
Structure (SMILES): COc1cc2ncnc(Nc3cccc(Cl)c3F)c2cc1OC1CCN(C(=O)OCCN2CCCCC2)CC1

IC50 (EGFR (human) [28]): 260 nM
Structure (SMILES): CN(C)CC(=O)N1CCC[C@@H]1COc1cccc2ncnc(Nc3ccc(OCc4cncs4)c(Cl)c3)c12

IC50 (MAPK14 (human)): > 10 µM
IC50 (EGFR [29]): > 10 µM
Structure (SMILES): O=C(CCCNc1ncc(C(F)(F)F)cc1Cl)NNS(=O)(=O)c1ccc(CNC(=O)c2ccc(Cl)cc2)s1

— the Kinase Knowledgebase extract (Sharma et al. 2016)
